From ChEMBL document CHEMBL5726153, “Benzimidazole derivatives as kinase inhibitors” (2019) come the findings set out here.

As a reminder, the IC50 is the concentration that inhibits the measured activity by half. A lower IC50 goes with greater potency.

The series concerns the target Voltage-gated inwardly rectifying potassium channel KCNH2 (Homo sapiens, UniProt Q12809). In words: Determination of a Possible Activity on hERG: The hERG (human ether-A-go-go-related gene) channel corresponds to an important anti-target for potential new drugs since its inhibition may lead to sudden death. In order to establish whether the compounds of the present invention act on hERG, the following experiment was carried out.The in vitro effects of the compounds indicated in Table 5 on the …. The format is cell-based. A general note: Block of hERG is tested as a sign of cardiac risk.

Values joined by “and” are separate entries in the source; they are usually repeats but may differ in a detail not shown here. Equal values may be shown once.

Chain of Voltage-gated inwardly rectifying potassium channel KCNH2 (Q12809 whole entry): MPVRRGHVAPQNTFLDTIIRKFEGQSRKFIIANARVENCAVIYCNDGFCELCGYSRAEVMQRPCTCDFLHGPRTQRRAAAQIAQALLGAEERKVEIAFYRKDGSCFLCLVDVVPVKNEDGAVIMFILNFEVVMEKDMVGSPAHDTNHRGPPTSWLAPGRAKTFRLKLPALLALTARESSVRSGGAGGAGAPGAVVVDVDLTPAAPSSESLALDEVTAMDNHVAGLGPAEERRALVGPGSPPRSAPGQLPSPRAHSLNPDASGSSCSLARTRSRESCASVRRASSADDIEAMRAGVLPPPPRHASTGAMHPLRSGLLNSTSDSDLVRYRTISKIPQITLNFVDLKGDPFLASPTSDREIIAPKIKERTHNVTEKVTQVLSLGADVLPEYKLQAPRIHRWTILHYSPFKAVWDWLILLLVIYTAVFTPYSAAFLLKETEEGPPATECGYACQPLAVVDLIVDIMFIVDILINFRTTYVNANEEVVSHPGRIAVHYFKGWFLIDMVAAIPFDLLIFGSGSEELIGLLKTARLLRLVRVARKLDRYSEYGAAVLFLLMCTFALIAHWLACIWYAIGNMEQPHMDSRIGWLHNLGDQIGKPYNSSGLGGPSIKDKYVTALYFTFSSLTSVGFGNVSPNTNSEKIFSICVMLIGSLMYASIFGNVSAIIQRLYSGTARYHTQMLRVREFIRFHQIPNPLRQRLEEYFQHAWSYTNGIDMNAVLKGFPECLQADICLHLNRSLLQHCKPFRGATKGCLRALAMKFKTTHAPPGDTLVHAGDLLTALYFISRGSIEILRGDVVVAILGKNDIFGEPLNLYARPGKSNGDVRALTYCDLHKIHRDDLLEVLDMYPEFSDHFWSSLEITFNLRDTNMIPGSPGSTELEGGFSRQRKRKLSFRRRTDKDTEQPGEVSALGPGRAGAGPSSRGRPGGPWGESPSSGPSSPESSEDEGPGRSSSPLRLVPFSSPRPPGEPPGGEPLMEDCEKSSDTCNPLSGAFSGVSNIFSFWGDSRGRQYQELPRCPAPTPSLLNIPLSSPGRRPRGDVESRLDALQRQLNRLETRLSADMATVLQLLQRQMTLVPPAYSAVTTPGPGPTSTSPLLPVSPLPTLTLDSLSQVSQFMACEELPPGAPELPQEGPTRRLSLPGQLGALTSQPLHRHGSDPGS

The molecule `CCn1c(N2CCNCC2)nc2c([N+](=O)[O-])c(Br)c(Br)cc21` came in with a concentration for half-maximal inhibition (IC50) of 16.9 µM. In the case of `CCn1c(N2CCNC(=O)C2)nc2c([N+](=O)[O-])c(Br)c(Br)cc21` it was 1.78 µM and 11.9 µM.
